From patent publication US10130693B2, “Peptides, combination of peptides and scaffolds for use in immunotherapeutic treatment of various cancers” (Immatics Biotechnologies GmbH, priority 2015, dated 2018)

Columns and labels:
[1] = test system: CD8+ T cells; test: In vitro immunogenicity: T-cell priming with aAPCs loaded with HLA-A*02 peptide/MHC and anti-CD28, multimer staining; type: cell-based, human; conditions: HLA-A*02 peptides
From the text: In order to obtain information regarding the immunogenicity of the TUMAPs of the present invention, the inventors performed investigations using an in vitro T-cell priming assay based on repeated stimulations of CD8+ T cells with artificial antigen presenting cells (aAPCs) loaded with peptide/MHC complexes and anti-CD28 antibody.
In order to perform in vitro stimulations by artificial antigen presenting cells loaded with peptide-MHC complex (pMHC) and anti-CD28 antibody, the inventors first isolated CD8+ T cells from fresh HLA-A*02 leukapheresis products via positive selection using CD8 microbeads (Miltenyi Biotec, Bergisch-Gladbach, Germany) of healthy donors obtained from the University clinics Mannheim, Germany, after informed consent.
PBMCs and isolated CD8+ lymphocytes were incubated in T-cell medium (TCM) until use consisting of RPMI-Glutamax (Invitrogen, Karlsruhe, Germany) supplemented with 10% heat inactivated human AB serum (PAN-Biotech, Aidenbach, Germany), 100 U/ml Penicillin/100 μg/ml Streptomycin (Cambrex, Cologne, Germany), 1 mM sodium pyruvate (CC Pro, Oberdorla, Germany), 20 μg/ml Gentamycin (Cambrex). 2.5 ng/ml IL-7 (PromoCell, Heidelberg, Germany) and 10 U/ml IL-2 (Novartis Pharma, Nürnberg, Germany) were also added to the TCM at this step.
(§1) Generation of pMHC/anti-CD28 coated beads, T-cell stimulations and readout was performed in a highly defined in vitro system using four different pMHC molecules per stimulation condition and 8 different pMHC molecules per readout condition.
(§2) The purified co-stimulatory mouse IgG2a anti human CD28 Ab 9.3 (Jung et al., 1987) was chemically biotinylated using Sulfo-N-hydroxysuccinimidobiotin as recommended by the manufacturer (Perbio, Bonn, Germany). Beads used were 5.6 μm diameter streptavidin coated polystyrene particles (Bangs Laboratories, Illinois, USA).
pMHC used for positive and negative control stimulations were A*0201/MLA-001 (peptide […] (SEQ ID NO. 418) from modified Melan-A/MART-1) and A*0201/DDX5-001 ([…] from DDX5, SEQ ID NO. 419), respectively.
(§3) 800.000 beads/200 μl were coated in 96-well plates in the presence of 4×12.5 ng different biotin-pMHC, washed and 600 ng biotin anti-CD28 were added subsequently in a volume of 200 μl. Stimulations were initiated in 96-well plates by co-incubating 1×10^6 CD8+ T cells with 2×10^5 washed coated beads in 200 μl TCM supplemented with 5 ng/ml IL-12 (PromoCell) for 3 days at 37° C. Half of the medium was then exchanged by fresh TCM supplemented with 80 U/ml IL-2 and incubating was continued for 4 days at 37° C. This stimulation cycle was performed for a total of three times. For the pMHC multimer readout using 8 different pMHC molecules per condition, a two-dimensional combinatorial coding approach was used as previously described (Andersen et al., 2012) with minor modifications encompassing coupling to 5 different fluorochromes. Finally, multimeric analyses were performed by staining the cells with Live/dead near IR dye (Invitrogen, Karlsruhe, Germany), CD8-FITC antibody clone SK1 (BD, Heidelberg, Germany) and fluorescent pMHC multimers. For analysis, a BD LSRII SORP cytometer equipped with appropriate lasers and filters was used. Peptide specific cells were calculated as percentage of total CD8+ cells. Evaluation of multimeric analysis was done using the FlowJo software (Tree Star, Oregon, USA). In vitro priming of specific multimer+CD8+ lymphocytes was detected by comparing to negative control stimulations.

[2] = target: HLA-A*02:01 (Homo sapiens, UniProt P04439, D140Y/D185E/D98H/E176V/E277Q/G131W/G231S/I119V/I121R/I166T/I218V/L300P/L318F/N151K/N90K/P208A/P217A/Q86G/Q94H/R138H/R169H/T345S); test: MHC binding assay, UV-ligand exchange with beta2m ELISA (exchange yield), HLA-A*02; conditions: binding to HLA-A*02 ranged by peptide exchange yield
How it was run: (§4)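 Peptide–MHC complexes formed by UV-ligand exchange: a UV-cleavable peptide is replaced by the test peptide, and only binders keep the complex stable. Exchange yield read by streptavidin-capture ELISA on reactions diluted 100-fold, detected with HRP anti-β2m (2 ug/ml, 1 h, 37° C) and TMB at 450 nm.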

[3] = test system: CD8+ T cells; test: In vitro immunogenicity: T-cell priming with aAPCs loaded with HLA-A*24 peptide/MHC and anti-CD28, multimer staining; type: cell-based, human; conditions: HLA-A*24 peptides
Description: CD8+ T cells were primed using artificial APCs coated with anti-CD28 mAb and HLA-A*24 in complex with SEQ ID NO: 99 peptide (FIG. 5A, left panel), SEQ ID NO: 119 peptide (FIG. 5B, left panel), SEQ ID NO: 142 peptide (FIG. 5C, left panel) and SEQ ID NO: 174 peptide FIG. 5 (D, left panel), respectively. After three cycles of stimulation, the detection of peptide-reactive cells was performed by 2D multimer staining with A*24/SEQ ID NO: 99 (FIG. 5A), A*24/SEQ ID NO: 119 (FIG. 5B), A*24/SEQ ID NO: 142 (FIG. 5C) or A*24/SEQ ID NO: 174 (FIG. 5D). Right panels (FIGS. 5A,5B,5C and 5D) show control staining of cells stimulated with irrelevant A*24/peptide complexes. Viable singlet cells were gated for CD8+ lymphocytes. Boolean gates helped excluding false-positive events detected with multimers specific for different peptides. Frequencies of specific multimer+ cells among CD8+ lymphocytes are indicated.
as §1, §2, §3

[4] = test system: HLA-A*24; test: MHC binding assay, UV-ligand exchange with beta2m ELISA (exchange yield), HLA-A*24; set-up: species or system human; conditions: binding to HLA-A*24, UV-ligand exchange
How it was run: as §4

| Substance | in vitro immunogenicity, Wells positive [%] [1] | Peptide exchange (MHC class I binding score) [2] | in vitro immunogenicity, Wells positive [%] [3] | Peptide exchange (MHC class I binding score, peptide exchange yield) [4] |
| --- | --- | --- | --- | --- |
| 322 (ALVSGGVAQA; listed as Homo sapiens) [compound 322] | + (<20% = +) | +++ (50%-75% = +++) |  |  |
| 2 (ALYGKLLKL; listed as Homo sapiens) [compound 2] | ++++ (>=70% = ++++) | +++ (50%-75% = +++) |  |  |
| 9 (FLGDYVENL; listed as Homo sapiens) [compound 9] | + (<20% = +) | ++ (20%-49% = ++) |  |  |
| 182 (AYAQLGYLLF; listed as Homo sapiens) [compound 182] |  |  | +++ (50%-69% = +++) | ++++ (>=75% = ++++) |
| 98 (VFPRLHNVLF; listed as Homo sapiens) [compound 98] |  |  | + (<20% = +) | +++ (50%-75% = +++) |
| 137 (EYLHNCSYF; listed as Homo sapiens) [compound 137] |  |  | + (<20% = +) | ++++ (>=75% = ++++) |
| 353 (TYGKIDLGF; listed as Homo sapiens) [compound 353] |  |  | + (<20% = +) | +++ (50%-75% = +++) |
| 344 (EYNSDLHQF; listed as Homo sapiens) [compound 344] |  |  | + (<20% = +) | +++ (50%-75% = +++) |
| 166 (FYTLPFHLI; listed as Homo sapiens) [compound 166] |  |  | ++++ (>=70% = ++++) | ++++ (>=75% = ++++) |
| 170 (QYPFHVPLL; listed as Homo sapiens) [compound 170] |  |  | +++ (50%-69% = +++) | ++++ (>=75% = ++++) |
| 102 (VYPFENFEF; listed as Homo sapiens) [compound 102] |  |  | +++ (50%-69% = +++) | +++ (50%-75% = +++) |
| 371 (AYSHLRYVF; listed as Homo sapiens) [compound 371] |  |  | ++ (20%-49% = ++) | ++ (20%-49% = ++) |
| 380 (VYTGIDHHW; listed as Homo sapiens) [compound 380] |  |  | + (<20% = +) | ++++ (>=75% = ++++) |
| 106 (IYNETVRDLL; listed as Homo sapiens) [compound 106] |  |  | + (<20% = +) | +++ (50%-75% = +++) |
| 365 (VFIDHPVHL; listed as Homo sapiens) [compound 365] |  |  | + (<20% = +) | ++++ (>=75% = ++++) |
| 103 (NYIPVKNGKQF; listed as Homo sapiens) [compound 103] |  |  | + (<20% = +) | +++ (50%-75% = +++) |
| 277 (FYTFPFQQL; listed as Homo sapiens) [compound 277] |  |  | +++ (50%-69% = +++) | +++ (50%-75% = +++) |
| 190 (LYSELTETL; listed as Homo sapiens) [compound 190] |  |  | ++++ (>=70% = ++++) | +++ (50%-75% = +++) |
| 132 (RYPALFPVL; listed as Homo sapiens) [compound 132] |  |  | + (<20% = +) | ++++ (>=75% = ++++) |
| 111 (VYVQILQKL; listed as Homo sapiens) [compound 111] |  |  | + (<20% = +) | +++ (50%-75% = +++) |
| 112 (IYNFVESKL; listed as Homo sapiens) [compound 112] |  |  | +++ (50%-69% = +++) | +++ (50%-75% = +++) |
| 181 (VYPPYLNYL; listed as Homo sapiens) [compound 181] |  |  | ++++ (>=70% = ++++) | +++ (50%-75% = +++) |
| 140 (RYLINSYDF; listed as Homo sapiens) [compound 140] |  |  | +++ (50%-69% = +++) | ++++ (>=75% = ++++) |
| 177 (VYFKAGLDVF; listed as Homo sapiens) [compound 177] |  |  | + (<20% = +) | +++ (50%-75% = +++) |
| 96 (YYTQYSQTI; listed as Homo sapiens) [compound 96] |  |  | + (<20% = +) | ++++ (>=75% = ++++) |
| 354 (VYNEQIRDLL; listed as Homo sapiens) [compound 354] |  |  | + (<20% = +) | +++ (50%-75% = +++) |
| 168 (RYLEAALRL; listed as Homo sapiens) [compound 168] |  |  | +++ (50%-69% = +++) | +++ (50%-75% = +++) |
| 158 (IYEETRGVLKVF; listed as Homo sapiens) [compound 158] |  |  | + (<20% = +) | +++ (50%-75% = +++) |
| 175 (LYSPVPFTL; listed as Homo sapiens) [compound 175] |  |  | + (<20% = +) | +++ (50%-75% = +++) |
